Among the data in article PMC8401859 (Molecules, 2021) are IC50, Ki and Km values, retold here.

Assay [1] relates to CK1δ. Set-up: method as in PMID 31817920. Conditions: ATP 10 µM, read-out: IC50 in Literature; cited from earlier work.
A further assay concerns the target 6×His-CK1δ (Homo sapiens, UniProt P48730). Description: radiometric in vitro kinase reaction, 6×His-CK1δ, phosphate incorporation into α-casein.
The next assay deals with GST-CK1δ (Homo sapiens, UniProt P48730). Description: radiometric in vitro kinase reaction, GST-CK1δ, phosphate incorporation into α-casein.
GST-CK1δ, sequence (P48730 whole entry): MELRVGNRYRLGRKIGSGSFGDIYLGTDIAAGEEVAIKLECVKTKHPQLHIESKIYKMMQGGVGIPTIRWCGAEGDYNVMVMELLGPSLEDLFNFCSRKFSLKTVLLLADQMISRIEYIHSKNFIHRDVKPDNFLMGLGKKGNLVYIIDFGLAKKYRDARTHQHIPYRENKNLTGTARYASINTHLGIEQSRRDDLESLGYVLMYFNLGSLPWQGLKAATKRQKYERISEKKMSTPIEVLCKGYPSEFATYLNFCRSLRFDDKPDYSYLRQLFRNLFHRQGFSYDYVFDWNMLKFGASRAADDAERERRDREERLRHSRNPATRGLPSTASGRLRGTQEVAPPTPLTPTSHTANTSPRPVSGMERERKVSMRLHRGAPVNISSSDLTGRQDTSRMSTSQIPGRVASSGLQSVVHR
The test system of the next assay is CK1δ of yeast origin. As to conditions: Working Group B, ATP 100 µM; cited from earlier work.
The test system of assay [2] is CK1δ. As to conditions: Working Group A, ATP 10 µM; cited from earlier work.
In assay [3] the target is T1, 6×His-CK1ε (Homo sapiens, UniProt P49674).
T1 construct: made in house
T1 sequence (P49674 whole entry): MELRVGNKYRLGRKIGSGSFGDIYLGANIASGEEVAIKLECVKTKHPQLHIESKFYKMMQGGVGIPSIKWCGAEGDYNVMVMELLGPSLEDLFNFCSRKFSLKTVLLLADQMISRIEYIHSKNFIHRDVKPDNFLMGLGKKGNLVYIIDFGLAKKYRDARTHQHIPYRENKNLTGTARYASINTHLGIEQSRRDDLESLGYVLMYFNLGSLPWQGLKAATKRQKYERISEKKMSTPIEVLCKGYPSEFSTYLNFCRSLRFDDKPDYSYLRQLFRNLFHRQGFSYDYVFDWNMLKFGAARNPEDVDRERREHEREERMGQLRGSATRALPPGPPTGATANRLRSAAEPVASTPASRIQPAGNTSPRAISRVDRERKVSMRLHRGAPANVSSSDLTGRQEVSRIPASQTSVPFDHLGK
The assay can be described thus: radiometric in vitro kinase reaction, 6×His-CK1ε, phosphate incorporation into α-casein. The class given is biochemical.
Experimental: (§1) All in vitro kinase reactions were performed at 30 °C in a total volume of 15 µL containing 25 mM Tris-HCl (pH 7.0), 10 mM MgCl2, 100 µM EDTA and 0.4 pmol [γ-^32P]-ATP. […] GST- or 6×His-tagged CK1δ or CK1ε were used as enzymes in 7, 70 or 335 nM concentration. Additionally, a reaction without enzyme was performed and used to determine the background signal specifying the minimal usable enzyme concentration (signal to background ratio ≥10). Reactions were stopped by adding 3 µL of 5× SDS loading buffer and boiling at 95 °C for 5 min. Proteins were separated by SDS-PAGE and stained with Coomassie Brilliant Blue R250 (Waldeck GmbH & Co. KG, Muenster, Germany). Radioactively labelled proteins were visualized by autoradiography. For quantification, phosphorylated proteins were excised from dried gels and phosphate incorporation was measured via Cherenkov counting.
Raw data was used to calculate enzyme velocity (V) (phosphate transfer per min). V was plotted over ATP concentration and fitted to the Michaelis-Menten model using GraphPad Prism 7 (GraphPad Software, La Jolla, CA, USA). Km was calculated as the concentration of substrate needed to get half-maximal velocity. In order to determine IC50 values, raw data was transformed from initially measured cpm values to pmol of transferred phosphate. […]

For a further assay, the system named is CK1δ(1–294). Conditions: Working Group A, ATP 20 µM; cited from earlier work.
The next assay deals with untagged CK1δ. Set-up: method as in PMID 19458106. Conditions: CK1-specific peptide substrate, ATP 10 µM, luminescence-based, read-out: IC50 in Literature; cited from earlier work.
For a further assay, the system named is CK1εΔ319. Further details: method as in PMID 17502429. As to conditions: Working Group A, CK1εΔ319, ATP 5 µM; cited from earlier work.
Assay [4] concerns 6×His-CK1ε. Further details: method as in PMID 19458106. Conditions: Working Group B, ATP 10 µM; cited from earlier work.

The structures appear in SMILES notation. pIC50, pKi: −log10 of the molar value. Like-named read-outs stand apart in the source and are kept apart here.

6×His-CK1δ, sequence (P48730 whole entry): as the sequence (P48730 whole entry) above
Experimental for 6×His-CK1δ: as §1
(§2) Raw data was used to calculate enzyme velocity (V) (phosphate transfer per min). V was plotted over ATP concentration and fitted to the Michaelis-Menten model using GraphPad Prism 7 (GraphPad Software, La Jolla, CA, USA). Km was calculated as the concentration of substrate needed to get half-maximal velocity. In order to determine IC50 values, raw data was transformed from initially measured cpm values to pmol of transferred phosphate. Subsequently data was transformed logarithmically (X = log(X)), normalized to DMSO (100%) and zero (0%) and finally fit to sigmoidal dose-response curves (variable slope) with nonlinear regression using GraphPad Prism 7.
Experimental for GST-CK1δ: as §1, §2

One may read the pIC50 as the IC50 on a negative log10 scale, so that one unit is a factor of ten. Take `O=C(Nc1nc2ccc(C(F)(F)F)cc2s1)Sc1nccc(=O)n1Cc1ccc(OC(F)(F)F)cc1` [Liu-20]: the pIC50 is 7.07 with CK1δ [1]; 6.39 on 6×His-CK1δ (6×His-CK1δ 70 nM, 10 min, ATP equal to Km (ATP) 14 µM, α-casein 10 µM, 30 °C); 6.40 on GST-CK1δ (GST-CK1δ 7 nM, 10 min, ATP equal to Km (ATP) 6 µM, α-casein 10 µM, 30 °C). In addition, the pKi on 6×His-CK1δ (read-out: Kic, 6×His-CK1δ, Kic = IC50/2 (Cheng-Prusoff, ATP = Km)) is 6.70; on GST-CK1δ (read-out: Kic, GST-CK1δ, Kic = IC50/2 (Cheng-Prusoff, ATP = Km)), 6.70.
Turning to `COc1cc(OC)c(C=C2C(O)=Nc3ccccc32)c(OC)c1` [IC261], the pIC50 in the assay on CK1δ of yeast origin was 5.60; in the assay on CK1δ [2], 6.00.
One may read the Km as the substrate concentration at which the rate is half of its maximum. For the compound `Nc1ncnc2c1ncn2[C@@H]1O[C@H](COP(=O)(O)OP(=O)(O)OP(=O)(O)O)[C@@H](O)[C@H]1O` [ATP], the Km on 6×His-CK1δ (read-out: Km (ATP), 6×His-CK1δ 70 nM, 10 min, ATP 0.5 to 100 µM, Michaelis-Menten) was 14 µM; at GST-CK1δ (read-out: Km (ATP), GST-CK1δ 7 nM, 10 min, ATP 0.5 to 100 µM, Michaelis-Menten), 6 µM.
For `Nc1ncnc2c1c(COc1cccc(Cl)c1)nn2C1CCOCC1` [PF-4800567], the pIC50 against 6×His-CK1ε [3] is 7.14. At 6×His-CK1ε [3] (6×His-CK1ε, Kic = IC50/2 (Cheng-Prusoff, ATP = Km)), this compound showed a pKi of 7.44.
In the case of `NC(=O)c1ccc(-c2nc(-c3ccc4c(c3)OCCO4)c(-c3ccccn3)[nH]2)cc1` [D4476], the pIC50 was 6.70 in the assay on CK1δ of yeast origin and 6.52 in the assay with CK1δ(1–294).
As to `Nc1nccc(-c2c(-c3ccc(F)cc3)ncn2C2CCCCC2)n1` [PF-670462], the figures for the pIC50 with untagged CK1δ, with CK1εΔ319 and with 6×His-CK1ε [4] were 7.89, 8.10 and 7.10, respectively.
